Target: T1, MNK2 (Homo sapiens, UniProt Q9HBH9)
T1 construct: the open reading frames of human Mnk1 and Mnk2a were amplified from cDNA; made in house; host or cells: E. coli BL21
Experiment: Mnk2a in vitro kinase assay (indirect fluorescence polarization)
Assay type: biochemical
Conditions: pre-activated GST-Mnk2a 2.5 nM, 20 μM ATP, 30 μM substrate peptide
Summary of the method: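 Human GST-Mnk2a was expressed in E. coli and activated in vitro with 150 nM pre-activated ERK2 and 50 μM ATP in HEPES pH 7.4/MgCl2 buffer (45 min, 30 °C). Activity on an eIF4E Ser209-derived 12mer peptide was read by competitive fluorescence polarization with a phospho-specific antibody.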

T1 sequence (Q9HBH9 whole entry): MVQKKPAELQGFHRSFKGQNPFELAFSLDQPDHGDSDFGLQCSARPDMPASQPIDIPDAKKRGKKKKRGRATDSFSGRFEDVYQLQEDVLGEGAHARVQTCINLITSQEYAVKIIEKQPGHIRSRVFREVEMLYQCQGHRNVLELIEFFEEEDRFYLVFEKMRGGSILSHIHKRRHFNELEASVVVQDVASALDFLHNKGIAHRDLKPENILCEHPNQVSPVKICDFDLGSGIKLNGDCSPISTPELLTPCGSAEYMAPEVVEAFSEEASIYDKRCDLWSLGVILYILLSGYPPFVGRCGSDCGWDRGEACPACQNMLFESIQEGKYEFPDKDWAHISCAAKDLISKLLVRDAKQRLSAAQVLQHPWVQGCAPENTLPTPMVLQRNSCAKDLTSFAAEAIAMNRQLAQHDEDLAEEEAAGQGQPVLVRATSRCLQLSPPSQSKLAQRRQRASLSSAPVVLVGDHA

Compound	IC50
Cc1c(C(N)=O)sc2ncnc(Nc3ccc(F)cc3O[C@H]3CC[C@@H](O)CC3)c12 [Example 150]	11 nM
Cc1c(C(=O)NCCCN(C)C)sc2ncnc(Nc3ccc(F)cc3O[C@H]3CC[C@@H](O)CC3)c12 [Example 151, 4-[4-Fluoro-2-(cis-4-hydroxy-cyclohexyloxy)-phenylamino]-5-methyl-thieno[2,3-d]pyrimidine-6-carboxylic acid (3-dimethylamino-propyl)-amide]	36 nM
Cc1c(C(=O)NCCCN(C)C)sc2ncnc(Nc3ccc(F)cc3O[C@H]3CC[C@H](O)CC3)c12 [Example 152, 4-[4-Fluoro-2-(trans-4-hydroxy-cyclohexyloxy)-phenylamino]-5-methyl-thieno[2,3-d]pyrimidine-6-carboxylic acid (3-dimethylamino-propyl)-amide]	11 nM
Cc1c(C(=O)NCCCN2CCCC2)sc2ncnc(Nc3ccc(F)cc3O[C@H]3CC[C@H](O)CC3)c12 [Example 153, 4-[4-Fluoro-2-(trans-4-hydroxy-cyclohexyloxy)-phenylamino]-5-methyl-thieno[2,3-d]pyrimidine-6-carboxylic acid (3-pyrrolidin-1-yl-propyl)-amide]	9 nM
Cc1c(C(=O)NCCO)sc2ncnc(Nc3ccc(F)cc3O[C@H]3CC[C@H](O)CC3)c12 [Example 155]	9 nM
Cc1c(C(=O)NCCCn2ccnc2)sc2ncnc(Nc3ccc(F)cc3O[C@H]3CC[C@H](O)CC3)c12 [Example 156]	13 nM
Cc1c(C(N)=O)sc2ncnc(Nc3ccc(F)cc3O[C@H]3CC[C@H](O)CC3)c12 [Example 158, 4-[4-Fluoro-2-(trans-4-hydroxy-cyclohexyloxy)-phenylamino]-5-methyl-thieno[2,3-d]pyrimidine-6-carboxylic acid amide]	4 nM
Cc1c(C(=O)N[C@H]2C[C@@H]2N)sc2ncnc(Nc3ccc(F)cc3O[C@H]3CC[C@H](O)CC3)c12 [Example 159]	16 nM
Cc1c(C(=O)NCC#CCN)sc2ncnc(Nc3ccc(F)cc3O[C@H]3CC[C@H](O)CC3)c12 [Example 160]	6 nM
Cc1c(C(=O)NCCCCO)sc2ncnc(Nc3ccc(F)cc3O[C@H]3CC[C@H](O)CC3)c12 [Example 161]	17 nM
Cc1c(C(=O)NCc2cnco2)sc2ncnc(Nc3ccc(F)cc3O[C@H]3CC[C@H](O)CC3)c12 [Example 162]	10 nM
Cc1c(C(=O)NCC#N)sc2ncnc(Nc3ccc(F)cc3O[C@H]3CC[C@H](O)CC3)c12 [Example 163]	9 nM
CNC(=O)CNC(=O)c1sc2ncnc(Nc3ccc(F)cc3O[C@H]3CC[C@H](O)CC3)c2c1C [Example 164]	16 nM
Cc1c(C(=O)NCC#CCN(C)C)sc2ncnc(Nc3ccc(F)cc3O[C@H]3CC[C@H](O)CC3)c12 [Example 165]	8 nM
Cc1c(C(=O)NCC2CNCCO2)sc2ncnc(Nc3ccc(F)cc3O[C@H]3CC[C@H](O)CC3)c12 (stereo partly drawn) [Example 166]	11 nM
Cc1c(C(=O)N[C@H]2CC[C@H](O)CC2)sc2ncnc(Nc3ccc(F)cc3O[C@H]3CC[C@H](O)CC3)c12 [Example 168]	20 nM
Cc1c(C(=O)NCCN2CCCCC2)sc2ncnc(Nc3ccc(F)cc3O[C@H]3CC[C@H](O)CC3)c12 [Example 170]	19 nM
Cc1c(C(=O)NCC(C)O)sc2ncnc(Nc3ccc(F)cc3O[C@H]3CC[C@H](O)CC3)c12 (stereo partly drawn) [Example 171]	43 nM
Cc1c(C(=O)NCCCO)sc2ncnc(Nc3ccc(F)cc3O[C@H]3CC[C@H](O)CC3)c12 [Example 172]	16 nM
CCNC(=O)c1sc2ncnc(Nc3ccc(F)cc3O[C@H]3CC[C@H](O)CC3)c2c1C [Example 173]	14 nM
Cc1c(C(=O)NCc2cn(C)cn2)sc2ncnc(Nc3ccc(F)cc3O[C@H]3CC[C@H](O)CC3)c12 [Example 174]	10 nM

Compound	IC50
CO[C@H]1CC[C@H](Oc2cc(F)ccc2Nc2ncnc3sc(C(N)=O)c(C)c23)CC1 [Example 175, 4-[4-Fluoro-2-(trans-4-methoxy-cyclohexyloxy)-phenylamino]-5-methyl-thieno[2,3-d]pyrimidine-6-carboxylic acid amide]	9 nM
CO[C@H]1CC[C@H](Oc2cc(F)ccc2Nc2ncnc3sc(C(=O)NCC#CCN)c(C)c23)CC1 [Example 178]	16 nM
CO[C@H]1CC[C@H](Oc2cc(F)ccc2Nc2ncnc3sc(C(=O)NCC4COCCN4)c(C)c23)CC1 (stereo partly drawn) [Example 179]	30 nM
CO[C@H]1CC[C@H](Oc2cc(F)ccc2Nc2ncnc3sc(C(=O)NCC4CNCCO4)c(C)c23)CC1 (stereo partly drawn) [Example 180]	16 nM
COC1CCC(Oc2cc(F)ccc2Nc2ncnc3sc(C(=O)NCCCCO)c(C)c23)CC1 (stereo not drawn) [Example 181]	21 nM
CO[C@H]1CC[C@H](Oc2cc(F)ccc2Nc2ncnc3sc(C(=O)NCC#N)c(C)c23)CC1 [Example 182]	15 nM
CO[C@H]1CC[C@H](Oc2cc(F)ccc2Nc2ncnc3sc(C(=O)N[C@H]4CC[C@H](O)CC4)c(C)c23)CC1 [Example 183]	23 nM
CO[C@H]1CC[C@H](Oc2cc(F)ccc2Nc2ncnc3sc(C(=O)NCC(C)O)c(C)c23)CC1 (stereo partly drawn) [Example 184]	38 nM
CO[C@H]1CC[C@H](Oc2cc(F)ccc2Nc2ncnc3sc(C(=O)NCc4cnco4)c(C)c23)CC1 [Example 185]	17 nM
CO[C@H]1CC[C@H](Oc2cc(F)ccc2Nc2ncnc3sc(C(=O)NCc4cn(C)cn4)c(C)c23)CC1 [Example 186]	20 nM
CO[C@H]1CC[C@H](Oc2cc(F)ccc2Nc2ncnc3sc(C(=O)NCC#CCN(C)C)c(C)c23)CC1 [Example 187]	21 nM
CNC(=O)CNC(=O)c1sc2ncnc(Nc3ccc(F)cc3O[C@H]3CC[C@H](OC)CC3)c2c1C [Example 188]	20 nM
CO[C@H]1CC[C@H](Oc2cc(F)ccc2Nc2ncnc3sc(C(=O)N[C@H]4C[C@@H]4N)c(C)c23)CC1 [Example 189]	28 nM
CO[C@H]1CC[C@H](Oc2cc(F)ccc2Nc2ncnc3sc(C(=O)NCCN4CCCCC4)c(C)c23)CC1 [Example 190]	30 nM
CO[C@H]1CC[C@H](Oc2cc(F)ccc2Nc2ncnc3sc(C(=O)NCCCN4CCOCC4)c(C)c23)CC1 [Example 192, 4-[4-Fluoro-2-(trans-4-methoxy-cyclohexyloxy)-phenylamino]-5-methyl-thieno[2,3-d]pyrimidine-6-carboxylic acid (3-morpholin-4-yl-propyl)-amide]	21 nM
CO[C@H]1CC[C@H](Oc2cc(F)ccc2Nc2ncnc3sc(C(=O)NCCN(C)C)c(C)c23)CC1 [Example 193]	43 nM
CO[C@H]1CC[C@H](Oc2cc(F)ccc2Nc2ncnc3sc(C(=O)NCCCO)c(C)c23)CC1 [Example 195]	19 nM
CO[C@H]1CC[C@H](Oc2cc(F)ccc2Nc2ncnc3sc(C(=O)NCCO)c(C)c23)CC1 [Example 196]	17 nM
CO[C@H]1CC[C@H](Oc2cc(F)ccc2Nc2ncnc3sc(C(=O)NCCCn4ccnc4)c(C)c23)CC1 [Example 197]	1 nM
CO[C@H]1CC[C@H](Oc2cc(F)ccc2Nc2ncnc3sc(C(=O)NCC4CN(C)CCO4)c(C)c23)CC1 (stereo partly drawn) [Example 199]	15 nM
CO[C@H]1CC[C@H](Oc2cc(F)ccc2Nc2ncnc3sc(C(=O)NCC4CCCNC4)c(C)c23)CC1 (stereo partly drawn) [Example 200, 4-[4-Fluoro-2-(trans-4-methoxy-cyclohexyloxy)-phenylamino]-5-methyl-thieno[2,3-d]pyrimidine-6-carboxylic acid (piperidin-3-ylmethyl)-amide]	17 nM

— patent US8754079B2, “Cycloalkyl containing thienopyrimidines for pharmaceutical compositions” (Boehringer Ingelheim International GmbH, priority 2010, dated 2014)
